Laboratory results from patent US9688695B2, “Imidazothiadiazole and imidazopyrazine derivatives as protease activated receptor 4 (PAR4) inhibitors for treating platelet aggregation” (BRISTOL-MYERS SQUIBB COMPANY, priority 2012, dated 2017).

Molecular target: PAR4 (Homo sapiens (Human), UniProt Q96RI0)
Test: FLIPR assay in PAR4-expressing HEK293 cells (PAR4 antagonist activity, calcium mobilization)
Type: cell-based
Conditions: H-Ala-Phe(4-F)-Pro-Gly-Trp-Leu-Val-Lys-Asn-Gly-NH2-induced calcium mobilization
From the text: The FLIPR assay is an exemplary in vitro assay for measuring the activity of the PAR4 antagonists of the present invention. In this assay, intracellular calcium mobilization is induced in PAR4 expressing cells by a PAR4 agonist and calcium mobilization is monitored. See, e.g., Example A.
HEK293 cells stably expressing PAR4 were generated by a standard method of transfection of human […] cDNA expression vector or by RAGE technology from Athersys Inc. (Cleveland, Ohio) and selected based on PAR4 protein expression of mRNA expression. […] These cells express endogenous PAR1 and can elicit calcium signal upon stimulation with PAR1 agonist peptide.
Counter screens for agonist activity and PAR1 antagonist activity were also performed. Briefly, HEK293 EBNA PAR4 clone 20664.1J cells were plated 24 hrs. prior to experiment in 384 well, Poly-D-Lysine coated, black, clear bottom plates (Greiner Bio-One, Monroe, N.C.). Cells were plated at 20,000 cells/well in […] growth medium and incubated at 37° C. with 5% CO2 overnight. At time of assay, media was replaced with 40 μl 1× Hank's Buffered Saline Solution (HBSS) (with 10 mM HEPES) and 20 μl test compound also diluted in 1×HBSS buffer was added at various concentrations and 0.67% DMSO final concentration on the FDSS for agonist measurement. The cells were then incubated for 30 minutes at room temperature followed by addition of 20 μl of agonist peptide for antagonist measurement on the FDSS.
As indicated above, the FLIPR assay, an in vitro assay, measures the PAR4 antagonist activity of compounds tested as described in Example A. The PRP assay, an in vitro assay, measures the PAR4 antagonist assay of the compounds tested in the presence of plasma proteins and thrombin agonist as described in Example C.

Chain of PAR4 (Q96RI0 18-385): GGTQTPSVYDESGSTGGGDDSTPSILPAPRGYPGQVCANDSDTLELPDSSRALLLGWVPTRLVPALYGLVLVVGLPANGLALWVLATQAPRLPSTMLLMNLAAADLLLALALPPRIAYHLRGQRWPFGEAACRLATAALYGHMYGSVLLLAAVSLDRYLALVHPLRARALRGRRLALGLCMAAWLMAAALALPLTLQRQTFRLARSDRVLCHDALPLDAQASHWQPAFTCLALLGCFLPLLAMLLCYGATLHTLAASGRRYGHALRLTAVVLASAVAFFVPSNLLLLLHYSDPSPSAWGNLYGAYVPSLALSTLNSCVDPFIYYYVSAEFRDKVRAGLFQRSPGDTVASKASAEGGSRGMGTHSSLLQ

EC50 [nM] | SMILES
0.3 | COc1nn2cc(-c3cc4c(OCc5csc(-c6ccc(C(=O)N(C)C(C)(C)C)cc6)n5)cc(F)cc4o3)nc2s1 [Example 182, N-(tert-Butyl)-4-(4-(((6-fluoro-2-(2-methoxyimidazo[2,1-b][1,3,4]thiadiazol-6-yl)benzofuran-4-yl)oxy)methyl)thiazol-2-yl)-N-methylbenzamide]
110 | COc1cc(OCc2csc(N3CCN(C4CCOCC4)CC3)n2)c2cc(-c3cn4nc(C)ccc4n3)oc2c1 [Example 286]
0.37 | COc1cc(OCc2csc(C3(O)CCCCC3)n2)c2cc(-c3cn4nc(OC)sc4n3)oc2c1 [Example 133, 1-(4-(((6-Methoxy-2-(2-methoxyimidazo[2,1-b][1,3,4]thiadiazol-6-yl)benzofuran-4-yl)oxy)methyl)thiazol-2-yl)cyclohexanol]
0.6 | COc1cc(OCc2csc(-c3ccc(C(=O)N4CC(O)C4)cc3)n2)c2cc(-c3cn4nc(OC)sc4n3)oc2c1 [Example 290]
3.4 | COc1cc(OCc2csc(-c3ccccc3Cl)n2)c2cc(-c3cn4nc(OC)sc4n3)oc2c1 [Example 16]
1.3 | CCC1CCN(c2nc(COc3cc(OC)cc4oc(-c5cn6nc(C)ccc6n5)cc34)cs2)CC1 [Example 271]
0.65 | COc1cc(OCc2csc(-c3cccc(O)c3)n2)c2cc(-c3cn4nc(C)ccc4n3)oc2c1 [Example 222]
0.45 | COC(=O)c1ccc(-c2nc(COc3cc(OC)cc4oc(-c5cn6nc(OC)sc6n5)cc34)cs2)cc1 [Example 37, Methyl 4-(4-(((6-methoxy-2-(2-methoxyimidazo[2,1-b][1,3,4]thiadiazol-6-yl)benzofuran-4-yl)oxy)methyl)thiazol-2-yl)benzoate]
0.27 | COc1cc(OCc2csc(C3(NS(=O)(=O)C(C)(C)C)CCOCC3)n2)c2cc(-c3cn4nc(OC)sc4n3)oc2c1 [Example 171, N-(4-(4-(((6-Methoxy-2-(2-methoxyimidazo[2,1-b][1,3,4]thiadiazol-6-yl)benzofuran-4-yl)oxy)methyl)thiazol-2-yl)tetrahydro-2H-pyran-4-yl)-2-methylpropane-2-sulfonamide]
1.1 | COc1cc(OC(C)c2csc(-c3ccccc3)n2)c2cc(-c3cn4nc(OC)sc4n3)oc2c1 (stereo not drawn) [Example 83, 2-Methoxy-6-(6-methoxy-4-(1-(2-phenylthiazol-4-yl)ethoxy)benzofuran-2-yl)imidazo[2,1-b][1,3,4]thiadiazole]
0.36 | COc1cc(OCc2csc(N3CCN(S(=O)(=O)c4ccc(C#N)cc4)CC3)n2)c2cc(-c3cn4nc(OC)sc4n3)oc2c1 [Example 101, 4-((4-(4-(((6-Methoxy-2-(2-methoxyimidazo[2,1-b][1,3,4]thiadiazol-6-yl)benzofuran-4-yl)oxy)methyl)thiazol-2-yl)piperazin-1-yl)sulfonyl)benzonitrile]
1.2 | COc1cc(OCc2csc(N3CCN(c4ccccn4)CC3)n2)c2cc(-c3cn4nc(C)ccc4n3)oc2c1 [Example 263]
0.33 | COCc1sc(N2CCOCC2)nc1COc1cc(OC)cc2oc(-c3cn4nc(OC)sc4n3)cc12 [Example 90, 4-(4-(((6-Methoxy-2-(2-methoxyimidazo[2,1-b][1,3,4]thiadiazol-6-yl)benzofuran-4-yl)oxy)methyl)-5-(methoxymethyl)thiazol-2-yl)morpholine]
0.72 | COc1cc(OCc2csc(-c3ccc(C(=O)NCCO)cc3)n2)c2cc(-c3cn4nc(OC)sc4n3)oc2c1 [Example 293]
0.66 | COc1cc(OCc2csc(-c3ccc(S(C)(=O)=O)cc3)n2)c2cc(-c3cn4nc(C)ccc4n3)oc2c1 [Example 234]
0.75 | COc1cc(OCc2csc(N3CCN(c4ccccc4)CC3)n2)c2cc(-c3cn4nc(C)ccc4n3)oc2c1 [Example 262]
1.7 | COc1cc(OCc2csc(C3(c4ccc(Br)cc4)CCOCC3)n2)c2cc(-c3cn4nc(OC)sc4n3)oc2c1 [Example 153, 6-(4-((2-(4-(4-Bromophenyl)tetrahydro-2H-pyran-4-yl)thiazol-4-yl)methoxy)-6-methoxybenzofuran-2-yl)-2-methoxyimidazo[2,1-b][1,3,4]thiadiazole]
0.95 | COc1cccc(C2(c3nc(COc4cc(OC)cc5oc(-c6cn7nc(OC)sc7n6)cc45)cs3)CCOCC2)c1 [Example 158, 2-Methoxy-6-(6-methoxy-4-((2-(4-(3-methoxyphenyl)tetrahydro-2H-pyran-4-yl)thiazol-4-yl)methoxy)benzofuran-2-yl)imidazo[2,1-b][1,3,4]thiadiazole]
0.82 | CCC(O)(c1nc(COc2cc(OC)cc3oc(-c4cn5nc(OC)sc5n4)cc23)cs1)C(F)(F)F (stereo not drawn) [Example 138]
0.31 | COc1cc(OCc2nc(-c3ccnc(F)c3)sc2C)c2cc(-c3cn4nc(C)ccc4n3)oc2c1 [Example 227]

EC50 [nM] | SMILES
0.72 | COc1cc(OCc2csc(C3(F)CC(C)OC(C)C3)n2)c2cc(-c3cn4nc(OC)sc4n3)oc2c1 (stereo not drawn) [Example 122, 6-(4-((2-(4-Fluoro-2,6-dimethyltetrahydro-2H-pyran-4-yl)thiazol-4-yl)methoxy)-6-methoxybenzofuran-2-yl)-2-methoxy-imidazo[2,1-b][1,3,4]thiadiazole]
1.3 | C[C@H](F)c1nn2cc(-c3cc4c(OCc5csc(-c6ccccc6)n5)cc(F)cc4o3)nc2s1 [Example 195]
0.72 | COc1cc(OCc2nc(N3CCOCC3)sc2C(F)(F)F)c2cc(-c3cn4nc(C)ccc4n3)oc2c1 [Example 220]
2.1 | COc1cc(OCc2nc(-c3ccccc3)sc2C)c2cc(-c3cn4nc(OC)sc4n3)oc2c1 [Example 13]
0.35 | COc1cc(OCc2csc(C3(O)CCC(=O)CC3)n2)c2cc(-c3cn4nc(OC)sc4n3)oc2c1 [Example 128, 4-Hydroxy-4-(4-(((6-methoxy-2-(2-methoxyimidazo[2,1-b][1,3,4]thiadiazol-6-yl)benzofuran-4-yl)oxy)methyl)thiazol-2-yl)cyclohexan-one]
0.64 | CCN(C)C(=O)c1ccc(-c2nc(COc3cc(OC)cc4oc(-c5cn6nc(OC)sc6n5)cc34)cs2)cc1 [Example 308]
24 | COc1cc(OCc2csc(C3(NC(=O)CN(C)C)CCOCC3)n2)c2cc(-c3cn4nc(OC)sc4n3)oc2c1 [Example 174, 2-(Dimethylamino)-N-(4-(4-(((6-methoxy-2-(2-methoxyimidazo[2,1-b][1,3,4]thiadiazol-6-yl)benzofuran-4-yl)oxy)methyl)-thiazol-2-yl)tetrahydro-2H-pyran-4-yl)acetamide]
0.95 | COc1cc(OCc2csc(-c3ccc(C(=O)N(C4CC4)C4CC4)cc3)n2)c2cc(-c3cn4nc(OC)sc4n3)oc2c1 [Example 316]
0.63 | COc1cc(OCc2csc(-c3cccc(O)c3)n2)c2cc(-c3cn4nc(OC)sc4n3)oc2c1 [Example 63]
1.1 | COc1cc(OCc2csc(C3(F)CC(C)OC(C)C3)n2)c2cc(-c3cn4nc([C@H](C)F)sc4n3)oc2c1 (stereo partly drawn) [Example 199, 6-(4-((2-(4-Fluoro-2,6-dimethyltetrahydro-2H-pyran-4-yl)thiazol-4-yl)methoxy)-6-methoxybenzofuran-2-yl)-2-((S)-1-fluoroethyl)imidazo[2,1-b][1,3,4]thiadiazole]
24 | COc1cc(OCc2csc(-c3ccc(C(=O)NCCN(C)C)cc3)n2)c2cc(-c3cn4nc(OC)sc4n3)oc2c1 [Example 307]
0.99 | COc1cc(OCc2csc(-c3ccncc3)n2)c2cc(-c3cn4nc(C)ccc4n3)oc2c1 [Example 232]
0.77 | CCN(CC1CC1)C(=O)c1ccc(-c2nc(COc3cc(OC)cc4oc(-c5cn6nc(OC)sc6n5)cc34)cs2)cc1 [Example 312]
1.6 | COc1cc(OCc2csc(-c3ccc(C(=O)N4C(C)CCC4C)cc3)n2)c2cc(-c3cn4nc(OC)sc4n3)oc2c1 (stereo not drawn) [Example 317]
0.87 | C=C(c1cncnc1)c1nc(COc2cc(OC)cc3oc(-c4cn5nc(OC)sc5n4)cc23)cs1 [Example 178, 2-Methoxy-6-(6-methoxy-4-((2-(1-(pyrimidin-5-yl)vinyl)thiazol-4-yl)methoxy)benzofuran-2-yl)imidazo[2,1-b][1,3,4]thiadiazole]
0.97 | COc1cc(OCc2nc(N3CCOCC3)sc2Cl)c2cc(-c3cn4nc(OC)sc4n3)oc2c1 [Example 84]
0.81 | COc1cc(OCc2csc(-c3ccc(COC(C)=O)cc3)n2)c2cc(-c3cn4nc(C)ccc4n3)oc2c1 [Example 226]
0.82 | COc1cc(OCc2csc(C3(c4ccc(Cl)cc4)CCOC3)n2)c2cc(-c3cn4nc(OC)sc4n3)oc2c1 (stereo not drawn) [Example 163, 6-(4-((2-(3-(4-Chlorophenyl)tetrahydrofuran-3-yl)thiazol-4-yl)methoxy)-6-methoxybenzofuran-2-yl)-2-methoxyimidazo[2,1-b][1,3,4]thiadiazole]
2.4 | COc1cc(OCc2nc(-c3ccc(C(=O)O)cc3)sc2C)c2cc(-c3cn4nc(OC)sc4n3)oc2c1 [Example 46, 4-(4-(((6-Methoxy-2-(2-methoxyimidazo[2,1-b][1,3,4]thiadiazol-6-yl)benzofuran-4-yl)oxy)methyl)-5-methylthiazol-2-yl)benzoic acid]
